Laboratory results as given in patent US7557215B2, “Anthraquinone compounds as anti cancer compounds” (Somanta Limited, priority 2003, dated 2009).
Read-outs that look alike come from different tables or passages of the source.

How the values were obtained:
[1] = system: human ovarian tumour xenograft (A2780); assay: Tumour doubling time, human ovarian tumour xenograft A2780 in mice; assay type: in vivo
Text: (§1) Compound HAQ71, with the lowest RF (0.2) of the panel of compounds tested against the cisplatin resistant cells and its chloropropyl-substituted analogue, was selected for in vivo investigation in mice using tumour A2780 and A2780/cp70 cells grown as xenografts in mice. Significant anticancer activity in vivo of HAQ71 and CAQ75 was shown; both compounds exerting similar tumour growth delay in human xenografted wild-type and acquired cisplatin resistant tumours (A2780/cp70). The latter is very refractory to cisplatin and other covalent binding agents and has been characterised with elevated levels of glutathione, alterations in drug uptake/efflux and DNA repair mechanisms including mismatch repair deficiency.

A2780 [2] = assay: Inhibition of cell growth, A2780 wild type ovarian carcinoma cell line
A2780/cp70 = assay: Inhibition of cell growth, cisplatin resistant A2780/cp70 cell line; assay type: cell-based, human; settings: text b280, b283
[3] = system: cisplatin resistant variant (A2780/cp70) xenograft; assay: Tumour doubling time, cisplatin resistant variant xenograft A2780/cp70 in mice; assay type: in vivo
Text: as §1

A2780 [4] = system: A2780

| SMILES | doubling time (days) of tumour xenograft ([1]; 16 mg/kg i.p.) [days] | tumour doubling time, percent ([1]; 16 mg/kg i.p.) [%] | fold decrease in cytotoxicity on substitution of OH with Cl (HAQ71 vs CAQ75) (A2780 [2]; CAQ75 compared with HAQ71) [fold] | RF against the cisplatin resistant cells (A2780/cp70) | doubling time (days) of tumour xenograft ([3]; 16 mg/kg i.p.) [days] | tumour growth delay (%) ([3]; 16 mg/kg i.p.) | doubling time (days) of tumour xenograft ([1]; 20 mg/kg i.p.) [days] | tumour doubling time, percent ([1]; 20 mg/kg i.p.) [%] | IC50 (A2780 [2]; read-out: Inhibition of cell growth (IC50, nM) A2780, A2780, Table 1) [nM] | doubling time (days) of tumour xenograft ([3]; 20 mg/kg i.p.) [days] | tumour growth delay (%) ([3]; 20 mg/kg i.p.) | IC50 (A2780 [2]; read-out: Growth Inhibition (IC50) A2780, A2780, Table 4) [nM] | cytotoxicity ratio (CR=IC50 of alkylaminoanthraquinone-di-N-oxide/IC50 alkylaminoanthraquinone) (A2780 [4]) |
| --- | --- | --- | --- | --- | --- | --- | --- | --- | --- | --- | --- | --- | --- |
| CN(C)CCNc1ccc(NCCN2CCCCC2CCl)c2c1C(=O)c1c(O)ccc(O)c1C2=O (centres unmarked) [CAQ75, 1-{[2-(2-Chloromethylpiperidin-1-yl)ethyl]amino}-4-{[(2-dimethylamino)ethyl]amino}-5,8-dihydroxyanthracene-9,10-dione] | 5.83 ± 0.40 | 198 | > 10 | 0.4 | 4.18 ± 0.27 | 166 |  |  |  |  |  |  |  |
| CN(C)CCNc1ccc(NCCN2CCCC(CO)C2)c2c1C(=O)c1c(O)ccc(O)c1C2=O (centres unmarked) [HAQ71, 1-[(2-Dimethylamino)ethylamino]-4-[2-(3-hydroxymethyl-piperidin-1-yl)ethylamino]-5,8-dihydroxy-anthracene-9,10-dione] |  |  |  | 0.2 |  |  | 5.23 ± 0.39 | 177 | 8.4 | 4.33 ± 0.16 | 172 |  |  |
| C[N+](C)([O-])CCNc1ccc(NCC[N+](C)(C)[O-])c2c1C(=O)c1c(O)ccc(O)c1C2=O [AQ4N] |  |  |  |  |  |  |  |  |  |  |  | > 100000 | 17,000 |
